Experimental data taken from patent US20230218573A1, “INDOLE COMPOUNDS FOR THE TREATMENT OF NEURODEGENERATIVE DISEASES” (GALYAN BIO, INC., priority 2020, published 2023).
Read-outs that look alike come from different tables or passages of the source.

Experiments:
[1] = system: STHdh 111/111 striatal cells; assay: Cell viability (CellTiter Glo) of heat shocked STHdh 111/111 striatal cells; type: cell-based, mouse; settings: STHdh 111/111, 10 µM, 48 hours treatment; for viability at 10 µM: Mus musculus, read-out: Cell Viability striatal cells 3h heat shocked
Description: Cell culture - ST HDH Q111/111 (CH00095, Coriell Institute) striatal derived cell line were grown at 33° C. in DMEM (Sigma-Aldrich), supplemented with 10% fetal bovine serum (FBS), 1% Penicillin-Streptomycin (ThermoFisher Scientific), and 0.4 mg/ml G418 (Geneticin; Invitrogen). ST HDH Q111/111 are mouse striatal cells with polyQ length of 1111.
(§1) Pre-Treatment of striatal cell line - First the medium was removed and new DMEM (DMEM, high glucose, HEPES, no phenol red) medium, supplemented with 10% fetal bovine serum (FBS), 1% Penicillin-Streptomycin, containing 10 µM compound was added. The cells were incubated at 33° C. for 24 hours.
(§2) Heat shock - Cells were heat shocked for 3 hours at 41° C.
(§3) Treatment - Medium was removed and new DMEM (DMEM, high glucose, HEPES, no phenol red) medium, supplemented with 1% fetal bovine serum (FBS), 1% Penicillin-Streptomycin, containing 10 µM compound was added. The cells were incubated at 33° C. for 48 hours.
Cell Viability - Cell viability was measured according to manufacturer recommendations with CellTiter Glo (Promega). 96-well plates for used either for cell viability determination or cell staining.

mHTT = mHTT (Mus musculus, UniProt P42859, DEL28-30/G47A/INS49LLPQPQPP/INS60VA/L56P/P40L); assay: Diffuse mHTT levels in heat shocked STHdh 111/111 striatal cells by immunocytochemistry; settings: for remaining activity at 10 µM: 48 h
Description: as §1, §2, §3
Staining - Cells were permeabilized with 0.3% Triton X-100 in 4° C. PBS (pH 7.4 from ThermoFisher) for 10 minutes. Then the cells were washed two times with 4° C. PBS. Subsequently, cells are blocked with 3% NGS (normal goat serum from Thermo Fisher) in 4° C. PBS for 1 hour. Cells were incubated with primary antibodies in blocking buffer (PBS, 3% NGS, 0.02% NaN3) over night at 4° C. Primary antibodies were mouse antipolyglutamine monoclonal antibody 3B5H10 (Sigma-Aldrich) at 1:250 dilution and Guinea Pig anti-MAP2 polyclonal antibody (Synaptic Systems) at 1:500 dilution. 3B5H10 binds to diffuse mHTT. Diffuse mHTT is a monomeric and small oligomeric mHTT.
Cells were washed 2 times with 4° C. PBS, and then incubated with secondary antibodies at 1:2000 dilution in blocking buffer for 1 hour at room temperature. […] Cells were washed 2 times with 4° C. PBS, and then the nuclei were counterstain with DAPI (ThermoFisher) for 10 min at room temperature in the dark. Cells were washed 2 times with 4° C. PBS, and then 4° C. PBS was added to cells and then images were acquired.
Fluorescence Imaging - Imaging sessions were performed on a confocal microscope system (Carl Zeiss Microscopy) equipped with a dual spinning disk unit (Yokogawa). All components of the imaging system were controlled via the ZEN 2 software suite (Carl Zeiss Microscopy). The laser lines used were 405 nm, 488 nm and 639 nm to excite DAPI or the respective fluorophores. […] Nested t test was performed to calculate the significance amongst repeated measurements using GraphPad Prism software.
ST HDH Q7/7 (CH00097, Coriell Institute) striatal derived cell line from a knock in transgenic mouse containing HTT loci with a humanized Exon 1 containing 7 polyglutamine repeats.
EC 50 value was determined with non-linear regression.

STHdh 7/7 striatal cells = assay: Cell viability of heat shocked STHdh 7/7 striatal cells; type: cell-based, mouse; settings: 48 hours treatment; for Cell Viability striatal cells 3h heat shocked: 10 µM; for viability at 10 µM: Mus musculus, read-out: Cell Viability striatal cells 3h heat shocked
Description: RESULTS - Table 7b summarizes the effect of the compounds on cell viability. STHdh 7/7 were heat shocked for 3 hours and treated for 48 hours with small molecule compounds. Table 2 lists the cell viability in striatal cells after 48 hours.
Effect of Compound 22 on Cell Viability of Wildtype Striatal Neurons - STHdh 7/7 cells are striatal cells that express wildtype huntingtin. These cells were cultured in the same conditions as described above for STHdh 111/111. The neurons were first heat shocked for 3 hours at 41° C. as described above. After 48 hours of treatment with the small molecule Compounds, cell viability was determined using the method described above. The “buffer” control is represents cells treated with a buffer only, without any compounds added. Some of the compounds show higher cell viability in comparison to control heat shocked STHdh 7/7 neurons with buffer and no treatment (FIG. 9).

zebrafish larvae = assay: Zebrafish MPP+ motility model, photomotor assay; type: in vivo; settings: MPP+ alone, 500 µM
Description: MPP+ selectively targets dopaminergic neurons; the putative mechanism is induction of K+ efflux, cell membrane hyperpolarization and inhibition of neuronal firing. This ultimately leads to an inhibition of complex I, a decrease in ATP production and promotion of the generation of reactive oxygen species upon accumulation in the mitochondria (3). The observed phenotype following exposure to 500 µM from 24 hours post fertilization (hpf) to 120 hpf is characterized by a decrease in movement during lights-on phases of a photomotor assay. In unpublished data below, representative locomotor perturbations of the distance moved and movement frequency is shown.
Six groups were included in each experiment. Immediately after spawning, 40 embryos per group were allocated to a 24-well plate and system water (solvent) was added to all wells. For assessment of neuroprotective potential, Compound 4 was added for a final concentration of 1, 10 and 20 µM (column 4-6). From the following day at 24 hpf, Compound 4 was co-incubated with 500 µM MPP+. MPP+ was prepared immediately prior to incubation and solutions were changed daily. At 120 hpf, drug treatment and MPP+ exposure was ceased and a 3X wash was performed with system water. Larvae were then relocated to 96-well plates for behavioral recording and placed in a separate recording room for 24-hour acclimation. Prior to behavioral recording, wells were fully replenished system water.
Naive group was exposed to solvent only. Vehicle group was exposed to solvent and vehicle corresponding to the vehicle of 20 µM drug solution (0.02% DMSO). MPP+ positive control was exposed to solvent and 500 µM MPP+. All compound groups were treated with the respective vehicle and respective concentration of compound 4.
Behavioral data was recorded from 1 p.m. on 6 dpf until shortly after wakening on 7 dpf. The recording consisted of a photomotor assay in which lights switch off and on in 30-minute intervals between 1 p.m. and 6 p.m., producing a consistent photomotor response. […] Upon lights being turned on again, the larvae cease movement followed by a return to baseline. This cycle is repeated five times. Following the last lights-off phase, constant illumination is presented until lights turn off at 10 p.m. for the night. Lights turn on again at 8 a.m. the following day.
Average movement frequency was measured during 30-minute lights-on phases of photomotor assay. Movement bouts were defined as initiated when velocity exceeded a threshold of 2 mm/s and ceased when velocity fell below 1 mm/s.
Distance moved (mm) was defined as the average distance moved during 30-minute lights-on phases of photomotor assay.
Data was obtained using EthoVision XT (Version 11.5.2016, Noldus) and exported to Microsoft Excel for data analysis. […]

[2] = read-out: mHTT after treatment, 10 µM, 3 h heat shock, 48 hours treatment, in comparison to untreated STHdh 111/111

Chain of mHTT (P42859 with tags, fused parts or gaps DEL28-30/P40L/G47A/INS49LLPQPQPP/L56P/INS60VA): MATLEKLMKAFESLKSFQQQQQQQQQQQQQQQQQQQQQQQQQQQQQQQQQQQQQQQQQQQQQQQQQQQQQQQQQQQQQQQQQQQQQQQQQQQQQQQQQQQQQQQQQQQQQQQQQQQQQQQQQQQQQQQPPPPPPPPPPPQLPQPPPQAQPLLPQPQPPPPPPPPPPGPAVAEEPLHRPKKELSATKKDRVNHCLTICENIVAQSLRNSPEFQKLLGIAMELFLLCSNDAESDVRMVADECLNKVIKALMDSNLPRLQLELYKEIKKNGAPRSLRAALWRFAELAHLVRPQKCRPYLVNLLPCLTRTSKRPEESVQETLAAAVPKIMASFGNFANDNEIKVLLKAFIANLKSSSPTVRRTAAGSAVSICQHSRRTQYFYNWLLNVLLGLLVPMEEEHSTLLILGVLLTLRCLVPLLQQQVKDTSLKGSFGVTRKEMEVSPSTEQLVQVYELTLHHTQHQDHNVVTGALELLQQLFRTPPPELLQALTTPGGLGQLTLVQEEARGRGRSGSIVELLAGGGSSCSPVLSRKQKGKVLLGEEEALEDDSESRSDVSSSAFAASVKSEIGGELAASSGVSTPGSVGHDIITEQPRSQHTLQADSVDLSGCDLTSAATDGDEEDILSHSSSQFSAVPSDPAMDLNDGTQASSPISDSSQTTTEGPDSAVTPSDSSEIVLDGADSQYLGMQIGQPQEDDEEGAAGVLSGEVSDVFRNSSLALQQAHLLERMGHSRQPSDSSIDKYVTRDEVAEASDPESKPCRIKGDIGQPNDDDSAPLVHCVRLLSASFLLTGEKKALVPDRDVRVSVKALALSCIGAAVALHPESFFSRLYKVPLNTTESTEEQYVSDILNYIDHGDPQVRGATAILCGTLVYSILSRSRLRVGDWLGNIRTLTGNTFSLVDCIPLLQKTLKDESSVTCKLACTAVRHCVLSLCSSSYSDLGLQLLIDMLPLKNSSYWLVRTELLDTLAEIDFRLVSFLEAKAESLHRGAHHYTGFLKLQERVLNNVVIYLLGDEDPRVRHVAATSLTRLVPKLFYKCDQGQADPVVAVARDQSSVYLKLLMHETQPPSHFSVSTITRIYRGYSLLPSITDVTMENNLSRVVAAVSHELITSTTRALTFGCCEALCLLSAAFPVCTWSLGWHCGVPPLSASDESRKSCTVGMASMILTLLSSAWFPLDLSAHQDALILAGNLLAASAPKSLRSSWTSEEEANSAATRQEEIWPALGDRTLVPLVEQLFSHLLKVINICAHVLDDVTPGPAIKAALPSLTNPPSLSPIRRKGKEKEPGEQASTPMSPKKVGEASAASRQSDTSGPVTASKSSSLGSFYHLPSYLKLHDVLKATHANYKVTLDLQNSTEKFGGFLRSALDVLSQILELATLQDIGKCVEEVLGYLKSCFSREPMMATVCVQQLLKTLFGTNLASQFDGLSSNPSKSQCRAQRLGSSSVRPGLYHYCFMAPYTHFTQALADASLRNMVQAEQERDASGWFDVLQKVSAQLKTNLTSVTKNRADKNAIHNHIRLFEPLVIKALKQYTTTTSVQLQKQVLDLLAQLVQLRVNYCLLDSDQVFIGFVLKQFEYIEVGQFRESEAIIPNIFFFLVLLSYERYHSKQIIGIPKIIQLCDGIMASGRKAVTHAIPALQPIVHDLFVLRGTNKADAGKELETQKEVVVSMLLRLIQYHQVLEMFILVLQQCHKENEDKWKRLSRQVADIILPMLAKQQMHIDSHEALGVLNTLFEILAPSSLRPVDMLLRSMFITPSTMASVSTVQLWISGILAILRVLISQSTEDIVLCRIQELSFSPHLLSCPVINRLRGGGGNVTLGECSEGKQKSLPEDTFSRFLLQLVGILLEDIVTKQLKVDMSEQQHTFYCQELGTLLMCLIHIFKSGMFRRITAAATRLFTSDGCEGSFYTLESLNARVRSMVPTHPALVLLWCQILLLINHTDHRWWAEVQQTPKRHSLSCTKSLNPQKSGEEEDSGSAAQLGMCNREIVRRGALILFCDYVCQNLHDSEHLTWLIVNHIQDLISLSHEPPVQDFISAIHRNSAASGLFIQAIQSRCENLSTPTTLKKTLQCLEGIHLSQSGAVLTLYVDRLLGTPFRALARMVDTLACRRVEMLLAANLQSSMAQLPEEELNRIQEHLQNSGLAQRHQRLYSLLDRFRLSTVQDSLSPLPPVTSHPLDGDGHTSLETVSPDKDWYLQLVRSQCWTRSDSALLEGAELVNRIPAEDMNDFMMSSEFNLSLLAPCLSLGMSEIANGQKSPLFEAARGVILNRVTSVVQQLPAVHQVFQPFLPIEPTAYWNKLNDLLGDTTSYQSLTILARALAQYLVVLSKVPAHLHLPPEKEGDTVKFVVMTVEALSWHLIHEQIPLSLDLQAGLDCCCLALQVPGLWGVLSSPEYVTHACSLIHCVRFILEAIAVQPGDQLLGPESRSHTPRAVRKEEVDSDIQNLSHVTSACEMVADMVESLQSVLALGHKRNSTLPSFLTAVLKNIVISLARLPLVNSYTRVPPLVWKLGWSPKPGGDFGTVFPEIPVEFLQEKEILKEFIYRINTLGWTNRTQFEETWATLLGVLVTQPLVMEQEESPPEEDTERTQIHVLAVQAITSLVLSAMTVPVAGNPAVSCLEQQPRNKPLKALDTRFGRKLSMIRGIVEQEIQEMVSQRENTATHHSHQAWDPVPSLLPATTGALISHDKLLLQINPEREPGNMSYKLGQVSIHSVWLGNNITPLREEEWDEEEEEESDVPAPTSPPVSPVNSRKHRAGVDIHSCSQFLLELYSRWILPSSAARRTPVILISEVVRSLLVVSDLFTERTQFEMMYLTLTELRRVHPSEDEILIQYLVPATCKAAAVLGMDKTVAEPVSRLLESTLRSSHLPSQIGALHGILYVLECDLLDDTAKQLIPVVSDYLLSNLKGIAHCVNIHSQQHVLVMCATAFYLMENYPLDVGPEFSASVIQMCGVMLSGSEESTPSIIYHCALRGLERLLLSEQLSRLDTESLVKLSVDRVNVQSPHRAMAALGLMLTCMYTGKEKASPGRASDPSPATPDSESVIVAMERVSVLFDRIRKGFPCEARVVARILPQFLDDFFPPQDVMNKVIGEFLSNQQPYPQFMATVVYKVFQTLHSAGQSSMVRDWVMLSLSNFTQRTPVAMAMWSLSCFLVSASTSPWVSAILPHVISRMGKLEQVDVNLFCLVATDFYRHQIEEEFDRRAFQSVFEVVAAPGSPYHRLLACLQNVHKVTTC

| SMILES | viability at 10 µM [1] [%] | also measured |
| --- | --- | --- |
| CCN(CC)CCNC(=O)c1ccc2[nH]c3c(c2c1)CCC3 [Compound 27] | 66 | remaining activity at 10 µM (mHTT; read-out: mHTT after treatment): 50% |
| Cc1c(C)n(C)c2ccc(C(=O)NCCN3CCN(C)CC3)cc12 [Compound 45] | 81 | remaining activity at 10 µM (mHTT; [2]): 66% |
| Cc1c(C)n(C)c2ccc(C(=O)NCCN3CCOCC3)cc12 [Compound 40] | 85 | mHTT after treatment (mHTT; 10 µM, 3 h heat shock, 48 hours treatment, in comparison to untreated STHdh 111/111): 62% |
| CCN(CC)CCNC(=O)c1ccc2c(c1)c(C)c(C)n2C [Compound 19, N-(2-(Diethylamino)ethyl)-1,2,3-dimethyl-1H-indole-5-carboxamide] | 76 | remaining activity at 10 µM (mHTT; [2]): 45% |
| O=C(NCCN1CCCC1)c1ccc2[nH]c3c(c2c1)CCCC3 [Compound 13] | 117 |  |
| Cc1c(C)n(C)c2ccc(C(=O)NCCN3CCC3)cc12 [Compound 44, N-(2-(Azetidin-1-yl)ethyl)-1,2,3-dimethyl-1H-indole-5-carboxamide] | 75 | remaining activity at 10 µM (mHTT; [2]): 66% |
| Cc1c(C)n(C)c2ccc(C(=O)NCCN(C(C)C)C(C)C)cc12 [Compound 56] |  | Cell Viability striatal cells 3h heat shocked [1]: 27; Cell Viability striatal cells 3h heat shocked (STHdh 7/7 striatal cells): 64.1; remaining activity at 10 µM (mHTT; read-out: mHTT after treatment): 109% |
| CCN(CC)CCNC(=O)c1ccc2[nH]c(C)c(C)c2c1 [Compound 21, N-(2-(Diethylamino)ethyl)-2,3-dimethyl-1H-indole-5-carboxamide] | 87 | viability at 10 µM (STHdh 7/7 striatal cells): 82.6% |
| CCc1[nH]c2ccc(C(=O)NCCN(CC)CC)cc2c1C [Compound 38] | 81 |  |
| CN(C)CCNC(=O)c1ccc2[nH]c3c(c2c1)CCC3 [Compound 5] | 104 |  |
| Cc1[nH]c2ccc(C(=O)NCCN3CCCCC3)cc2c1C [Compound 47, 2,3-Dimethyl-N-(2-(piperidin-1-yl)ethyl)-1H-indole-5-carboxamide] | 66 |  |
| CCc1c(C)[nH]c2ccc(C(=O)NCCN(C)C)cc12 [Compound 1] | 111 | remaining activity at 10 µM (mHTT; read-out: mHTT after treatment): 30% |
| O=C(NCCN1CCC1)c1ccc2[nH]c3c(c2c1)CCC3 [Compound 42] | 88 |  |
| O=C(NCCN1CCOCC1)c1ccc2[nH]c3c(c2c1)CCCC3 [Compound 12] | 106 | remaining activity at 10 µM (mHTT; read-out: mHTT after treatment): 40% |
| CCN(CC)CCNC(=O)c1ccc2[nH]c3c(c2c1)CCCC3 [Compound 26] | 82 | remaining activity at 10 µM (mHTT; read-out: mHTT after treatment): 49% |
| CCc1[nH]c2ccc(C(=O)NCCN3CCC3)cc2c1C [Compound 6] | 113 | remaining activity at 10 µM (mHTT; read-out: mHTT after treatment): 37% |
| Cc1c(C)n(C)c2ccc(C(=O)NCCN(C(C)C)C(C)C)cc12.Cl [Compound 59] |  | Cell Viability striatal cells 3h heat shocked (STHdh 7/7 striatal cells): 153.6 |
| CCc1[nH]c2ccc(C(=O)NCCN3CCCCC3)cc2c1C [Compound 23] | 84 |  |
| Cc1c(C)n(C)c2ccc(C(=O)NCCN3CCCCC3)cc12 [Compound 31, 1,2,3-Trimethyl-N-(2-(piperidin-1-yl)ethyl)-1H-indole-5-carboxamide] | 116 |  |
| CCc1c(C)[nH]c2ccc(C(=O)NCCN3CCN(C)CC3)cc12 [Compound 15] | 104 |  |
| Cc1[nH]c2ccc(C(=O)NCCN3CCCC3)cc2c1C [Compound 29, 2,3-Dimethyl-N-(2-(pyrrolidin-1-yl)ethyl)-1H-indole-5-carboxamide] | 103 | viability at 10 µM (STHdh 7/7 striatal cells): 131% |
| CCc1[nH]c2ccc(C(=O)NCCN(C)C)cc2c1C [Compound 37] | 78 |  |

| SMILES | viability at 10 µM [1] [%] | also measured |
| --- | --- | --- |
| Cc1c(C)n(C)c2ccc(C(=O)NCCN3CCN(C)C(C)C3)cc12 (centres unmarked) [Compound 25, N-(2-(3,4-Dimethylpiperazin-1-yl)ethyl)-1,2,3-trimethyl-1H-indole-5-carboxamide] | 109 |  |
| CC(C)N(CCNC(=O)c1ccc2[nH]ccc2c1)C(C)C [Compound 43] | 32 |  |
| CN(C)CCNC(=O)c1ccc2[nH]c3c(c2c1)CCCC3 [Compound 3] | 86 |  |
| C[n+]1ccc(-c2ccccc2)cc1 [MPP+, reference compound] |  | distance moved compared to naive larvae (zebrafish larvae): moved significantly shorter distances than naive larvae |
| O=C(NCCN1CCCCC1)c1ccc2[nH]c3c(c2c1)CCCC3 [Compound 16] | 117 |  |
| Cc1[nH]c2ccc(C(=O)NCCN3CCC3)cc2c1C [Compound 17, N-(2-(Azetidin-1-yl)ethyl)-2,3-dimethyl-1H-indole-5-carboxamide] | 99 |  |
| CN1CCN(CCNC(=O)c2ccc3[nH]c4c(c3c2)CCCC4)CC1 [Compound 36] | 84 |  |
| CCc1c(C)[nH]c2ccc(C(=O)NCCN3CCOCC3)cc12 [Compound 32] | 98 |  |
| CCc1[nH]c2ccc(C(=O)NCCN3CCCC3)cc2c1C [Compound 11] | 114 | remaining activity at 10 µM (mHTT; read-out: mHTT after treatment): 40% |
| Cc1c(C)n(C)c2ccc(C(=O)NCCN3CCCC3)cc12 [Compound 46, 1,2,3-Trimethyl-N-(2-(pyrrolidin-1-yl)ethyl)-1Hindole-5-carboxamide] | 96 |  |
| O=C(NCCN1CCOCC1)c1ccc2[nH]c3c(c2c1)CCC3 [Compound 8] | 115 |  |
| Cc1c(C)n(C)c2ccc(C(=O)NCCN(C(C)C)C(C)C)cc12.Cl [Compound 39] |  | Cell Viability striatal cells 3h heat shocked [1]: 117; remaining activity at 10 µM (mHTT; [2]): 58% |
| CC(C)N(CCNC(=O)c1ccc2[nH]ccc2c1)C(C)C [Compound 72] |  | viability at 10 µM (STHdh 7/7 striatal cells): 45.7% |
| CN1CCN(CCNC(=O)c2ccc3[nH]c4c(c3c2)CCC4)CC1 [Compound 10] | 96 | remaining activity at 10 µM (mHTT; read-out: mHTT after treatment): 40% |
| CCN(CC)CCNC(=O)c1ccc2[nH]ccc2c1 [Compound 52] | 59 | remaining activity at 10 µM (mHTT; read-out: mHTT after treatment): 73% |
| Cc1c(C)n(C)c2ccc(C(=O)NCCN3CCCCC3C)cc12 (centres unmarked) [Compound 48] | 108 |  |
| O=C(NCCN1CCCC1)c1ccc2[nH]c3c(c2c1)CCC3 [Compound 14] | 113 | remaining activity at 10 µM (mHTT; read-out: mHTT after treatment): 41% |
| CCc1[nH]c2ccc(C(=O)NCCN3CCOCC3)cc2c1C [Compound 30] | 55 |  |
| CCc1c(C)[nH]c2ccc(C(=O)NCCN3CCCCC3)cc12 [Compound 18] | 103 | remaining activity at 10 µM (mHTT; read-out: mHTT after treatment): 44% |
| Cc1c(C)n(C)c2ccc(C(=O)NCCN(C)C)cc12 [Compound 41, N-(2-(Dimethylamino)ethyl)-1,2,3-trimethyl-1H-indole-5-carboxamide] | 75 |  |
| CCc1c(C)[nH]c2ccc(C(=O)NCCN3CCC3)cc12 [Compound 33] | 79 |  |
